The values that follow come from PubChem BioAssay AID1259407 (Chemical Carcinogenesis Research Information System (CCRIS), 2018).

SMILES strings stand for the structures. Activity calls are given as the source filed them. How the calls were made is not given here.

The subject of the data set is CCRIS mutagenicity, Ames/micronucleus/aberration tests. The data set can be described thus: CCRIS mutagenicity studies.
The mark [1] stands for this setting: Test System: AMES SALMONELLA TYPHIMURIUM, Strain/Indicator: TA98, Metabolic Activation: NONE, Method: PREINCUBATION
Setting [2] is: Test System: AMES SALMONELLA TYPHIMURIUM, Strain/Indicator: TA100, Metabolic Activation: NONE, Method: PREINCUBATION
The mark [3] stands for this setting: Test System: AMES SALMONELLA TYPHIMURIUM, Strain/Indicator: TA100, Metabolic Activation: RAT, LIVER, S-9, AROCLOR 1254, Method: STANDARD PLATE.

On to `CCCCCCCCCCCCS`, for which the mutagenic call (Test System: AMES SALMONELLA TYPHIMURIUM, Strain/Indicator: TA98, Metabolic Activation: HAMSTER, LIVER, S-9, AROCLOR 1254 (10%), Method: PREINCUBATION) was “inactive; negative”; the mutagenic call (Test System: AMES SALMONELLA TYPHIMURIUM, Strain/Indicator: TA98, Metabolic Activation: HAMSTER, LIVER, S-9, AROCLOR 1254, Method: STANDARD PLATE) was “inactive; negative”; the mutagenic call under setting [1] is “inactive; negative”; the mutagenic call (Test System: AMES SALMONELLA TYPHIMURIUM, Strain/Indicator: TA98, Metabolic Activation: NONE, Method: STANDARD PLATE) is “inactive; negative”; the mutagenic call (Test System: AMES SALMONELLA TYPHIMURIUM, Strain/Indicator: TA98, Metabolic Activation: RAT, LIVER, S-9, AROCLOR 1254 (10%), Method: PREINCUBATION) is “inactive; negative”; the mutagenic call (Test System: AMES SALMONELLA TYPHIMURIUM, Strain/Indicator: TA98, Metabolic Activation: RAT, LIVER, S-9, AROCLOR 1254, Method: STANDARD PLATE) was “inactive; negative”. The mutagenic call runs as follows: (Test System: AMES SALMONELLA TYPHIMURIUM, Strain/Indicator: TA100, Metabolic Activation: HAMSTER, LIVER, S-9, AROCLOR 1254 (10%), Method: PREINCUBATION) “inactive; negative”; (Test System: AMES SALMONELLA TYPHIMURIUM, Strain/Indicator: TA100, Metabolic Activation: HAMSTER, LIVER, S-9, AROCLOR 1254, Method: STANDARD PLATE) “inactive; negative”; under setting [2], “inactive; negative”; (Test System: AMES SALMONELLA TYPHIMURIUM, Strain/Indicator: TA100, Metabolic Activation: NONE, Method: STANDARD PLATE) “inactive; negative”; (Test System: AMES SALMONELLA TYPHIMURIUM, Strain/Indicator: TA100, Metabolic Activation: RAT, LIVER, S-9, AROCLOR 1254 (10%), Method: PREINCUBATION) “inactive; negative”; under setting [3], “inactive; negative”. Moreover, the mutagenic call by setting is: (Test System: AMES SALMONELLA TYPHIMURIUM, Strain/Indicator: TA1535, Metabolic Activation: HAMSTER, LIVER, S-9, AROCLOR 1254 (10%), Method: PREINCUBATION) “inactive; negative”; (Test System: AMES SALMONELLA TYPHIMURIUM, Strain/Indicator: TA1535, Metabolic Activation: HAMSTER, LIVER, S-9, AROCLOR 1254, Method: STANDARD PLATE) “inactive; negative”; (Test System: AMES SALMONELLA TYPHIMURIUM, Strain/Indicator: TA1535, Metabolic Activation: NONE, Method: PREINCUBATION) “inactive; negative”; (Test System: AMES SALMONELLA TYPHIMURIUM, Strain/Indicator: TA1535, Metabolic Activation: NONE, Method: STANDARD PLATE) “inactive; negative”; (Test System: AMES SALMONELLA TYPHIMURIUM, Strain/Indicator: TA1535, Metabolic Activation: RAT, LIVER, S-9, AROCLOR 1254 (10%), Method: PREINCUBATION) “inactive; negative”; (Test System: AMES SALMONELLA TYPHIMURIUM, Strain/Indicator: TA1535, Metabolic Activation: RAT, LIVER, S-9, AROCLOR 1254, Method: STANDARD PLATE) “inactive; negative”. In addition, the mutagenic call was “inactive; negative” (Test System: AMES SALMONELLA TYPHIMURIUM, Strain/Indicator: TA1537, Metabolic Activation: HAMSTER, LIVER, S-9, AROCLOR 1254 (10%), Method: PREINCUBATION); “inactive; negative” (Test System: AMES SALMONELLA TYPHIMURIUM, Strain/Indicator: TA1537, Metabolic Activation: HAMSTER, LIVER, S-9, AROCLOR 1254, Method: STANDARD PLATE); “inactive; negative” (Test System: AMES SALMONELLA TYPHIMURIUM, Strain/Indicator: TA1537, Metabolic Activation: NONE, Method: PREINCUBATION); “inactive; negative” (Test System: AMES SALMONELLA TYPHIMURIUM, Strain/Indicator: TA1537, Metabolic Activation: NONE, Method: STANDARD PLATE); “inactive; negative” (Test System: AMES SALMONELLA TYPHIMURIUM, Strain/Indicator: TA1537, Metabolic Activation: RAT, LIVER, S-9, AROCLOR 1254 (10%), Method: PREINCUBATION); “inactive; negative” (Test System: AMES SALMONELLA TYPHIMURIUM, Strain/Indicator: TA1537, Metabolic Activation: RAT, LIVER, S-9, AROCLOR 1254, Method: STANDARD PLATE). Further, the mutagenic call is, setting by setting: (Test System: AMES SALMONELLA TYPHIMURIUM, Strain/Indicator: TA1538, Metabolic Activation: HAMSTER, LIVER, S-9, AROCLOR 1254, Method: STANDARD PLATE) “inactive; negative”; (Test System: AMES SALMONELLA TYPHIMURIUM, Strain/Indicator: TA1538, Metabolic Activation: NONE, Method: STANDARD PLATE) “inactive; negative”; (Test System: AMES SALMONELLA TYPHIMURIUM, Strain/Indicator: TA1538, Metabolic Activation: RAT, LIVER, S-9, AROCLOR 1254, Method: STANDARD PLATE) “inactive; negative”; (Test System: MOUSE LYMPHOMA, Strain/Indicator: L5178Y (TK+/TK-), Metabolic Activation: NONE, Method: SUSPENSION/PLATE) “inactive; negative. reevaluation of results: negative”; (Test System: MOUSE LYMPHOMA, Strain/Indicator: L5178Y (TK+/TK-), Metabolic Activation: RAT, LIVER, S-9, AROCLOR 1254, Method: SUSPENSION/PLATE) “inactive; negative. reevaluation of results: negative”.

For the compound `CC(C)(Br)C(=O)O`, the mutagenic call by setting is: (End Point: IN VITRO CHROMOSOMAL ABERRATIONS, Test System: CHL CELLS, Metabolic Activation: NONE) “active; positive (structural changes)”; (End Point: IN VITRO CHROMOSOMAL ABERRATIONS, Test System: CHL CELLS, Metabolic Activation: RAT, LIVER, S-9, SODIUM PHENOBARBITAL AND 5,6-BENZOFLAVONE) “active; positive (structural changes)”.

On to `C=COC(=O)C=C`, for which the mutagenic call is “inactive; negative” (Test System: AMES SALMONELLA TYPHIMURIUM, Strain/Indicator: TA102, Metabolic Activation: RAT, LIVER, S-9, PHENOBARBITAL AND 5,6-BENZOFLAVONE, Method: STANDARD PLATE); “inactive; negative” (Test System: AMES SALMONELLA TYPHIMURIUM, Strain/Indicator: TA2638, Metabolic Activation: RAT, LIVER, S-9, PHENOBARBITAL AND 5,6-BENZOFLAVONE, Method: STANDARD PLATE); “inactive; negative” (Test System: E. COLI, Strain/Indicator: WP2 (PKM101), Metabolic Activation: RAT, LIVER, S-9, PHENOBARBITAL AND 5,6-BENZOFLAVONE, Method: STANDARD PLATE); “inactive; negative” (Test System: E. COLI, Strain/Indicator: WP2 UVRA (PKM101), Metabolic Activation: RAT, LIVER, S-9, PHENOBARBITAL AND 5,6-BENZOFLAVONE, Method: STANDARD PLATE).

On to `c1ccc2c(c1)ccc1cccnc12`, for which the mutagenic call is, setting by setting: under setting [3], “inactive; negative”; (Test System: AMES SALMONELLA TYPHIMURIUM, Strain/Indicator: TA100, Metabolic Activation: RAT, LIVER, S-9, PCB, Method: STANDARD PLATE) “active; positive”; (Test System: AMES SALMONELLA TYPHIMURIUM, Strain/Indicator: TA100, Metabolic Activation: RAT, LIVER, S-9, PHENOBARBITAL AND 5,6-BENZOFLAVONE, Method: PREINCUBATION) “inactive; negative”.

For `COc1nncc2ncccc12`, the mutagenic call runs as follows: under setting [1], “inactive; negative”; (Test System: AMES SALMONELLA TYPHIMURIUM, Strain/Indicator: TA98, Metabolic Activation: RAT, LIVER, S-9, PCB, Method: PREINCUBATION) “inactive; negative”; under setting [2], “inactive; negative”; (Test System: AMES SALMONELLA TYPHIMURIUM, Strain/Indicator: TA100, Metabolic Activation: RAT, LIVER, S-9, PCB, Method: PREINCUBATION) “inactive; negative”.

On to `CC(C)(C)ON=O`, for which the mutagenic call under setting [2] was “active; positive”; the mutagenic call (Test System: AMES SALMONELLA TYPHIMURIUM, Strain/Indicator: TA100, Metabolic Activation: RAT, LIVER, S-9, AROCLOR, Method: PREINCUBATION) was “inactive; negative”; the mutagenic call (Test System: AMES SALMONELLA TYPHIMURIUM, Strain/Indicator: TA102, Metabolic Activation: NONE, Method: PREINCUBATION) was “inactive; negative”.

With `O=C(/C=C/c1ccc(O)cc1)c1ccc(O)cc1O`, the mutagenic call runs as follows: (Test System: Ames Salmonella typhimurium, Strain/Indicator: TA102, Metabolic Activation: None, Method: Preincubation) “inactive; negative”; (Test System: Ames Salmonella typhimurium, Strain/Indicator: TA102, Metabolic Activation: Rat, Liver, S-9, Aroclor 1254 in 0.154 M KCl, Method: Preincubation) “active; positive”.

As to `Nc1ccc(-c2ccc(N)cc2[N+](=O)[O-])c([N+](=O)[O-])c1`, the mutagenic call is, setting by setting: under setting [1], “active; positive”; (Test System: AMES SALMONELLA TYPHIMURIUM, Strain/Indicator: TA98, Metabolic Activation: RAT, LIVER, S-9, KANECHLOR 500, Method: PREINCUBATION) “active; positive”.
